Experimental data: US10111854B2, “Synthesis and use of amine-containing flavonoids as potent anti-leishmanial agents” (The Hong Kong Polytechnic University, priority 2014, dated 2018)

Tests used:
Assay type in all cases: cell-based
[1] = tested on: L. major FV1 promastigotes; assay: Anti-promastigote activity (MTS assay), L. major FV1; details: Leishmania major, 72 hours
Summary of the method: (§1)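 Promastigotes (1×10^5 per well) in Schneider's medium pH 6.9 with 10% FBS, exposed to serial compound concentrations for 72 h at 27 °C. Viability by MTS/PMS reduction over 4 h, OD 490 nm; IC50 derived.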

[2] = tested on: L. donovani HU3 promastigotes; assay: Anti-promastigote activity (MTS assay), L. donovani HU3; details: Leishmania donovani, 72 hours
Summary of the method: as §1

[3] = tested on: promastigotes (L. amazonensis LV78, L major FV1, L. donovani HU3, L. donovani 39); assay: Anti-promastigote activity, strain not given; details: Leishmania amazonensis; strain not specified; read-out: IC50 against promastigotes
Procedure: Anti-promastigote activity was determined according to previous procedures (1) by Cell Titer 96® Aqueous Assay (Promega) that employed a tetrazolium compound. Promastigotes were seeded into 96-well flat bottom microtiter plate at 1×10^5 cells per well in a final volume of 100 μL medium and incubated with a series of concentrations of synthetic FM. Parasites were incubated at 27° C. for 72 hours. After 72 hours of incubation, 10 μL of MTS:PMS mixture [MTS:2-(4,5-Dimethylthiazol-2-yl-)-5-[3-(carboxymethoxy)phenyl]-2-(4-sulfophenyl)-2H-tetrazolium); PMS: phenazine methosulfate both purchased from Sigma] was added into each well of microtiter plate. The plate was then incubated at 27° C. for 4 hours for color development. After 4 hours of incubation, the OD values were determined at 490 nm using automatic microtiter plate reader (Bio-Rad).
IC50 values of known antileishmanials and the amine-containing flavonoid monomers of the present invention to promastigotes (L. amazonensis LV78, L major FV1, L. donovani HU3, L. donovani 39), macrophages (Raw 264.7 and PEM) and mouse fibroblast (L929) were determined. The anti-promastigotes activities and cytotoxicity of the amine-containing flavonoid monomers of the invention are shown in Table 1.

O=c1cc(-c2ccc(OCCOCCN(Cc3ccccn3)Cc3ccccn3)cc2)oc2ccccc12 [FM09, 2-(4-(2-(2-(bis(pyridin-2-ylmethyl)amino)ethoxy)ethoxy)phenyl)-4H-chromen-4-one]
IC50 [1]: 800 ± 100 nM | IC50 [2]: 500 ± 200 nM | IC50 [3]: < 5000 nM
